Measured values published in patent US20260217711A1, “TRIAZOLOPYRIDINYL ETHER LINKED COMPOUNDS AS KINASE INHIBITORS” (Bristol-Myers Squibb Company, priority 2023, published 2026).
Read-outs that look alike come from different tables or passages of the source.

Legend:
[1] = system: MLKL phosphorylation (pMLKL) in HT29-L23 cells; assay: MLKL Phosphorylation High-Content Assay; format: cell-based; settings: 6 h, necroptosis induced with human TNFα, SMAC mimetic and Z-VAD, read-out: LE pMLKL HC IC50
Outline: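 HT29-L23 cells incubated 6 h at 37° C before detection of phospho-MLKL by immunostaining with anti-phospho-MLKL antibody (1:1000 in PBS/0.1% BSA, overnight at 4° C). Readout by high-content imaging with compartmental image analysis.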

[2] = biological target: T1, MDR1 P-glycoprotein (P-gp) (Homo sapiens, UniProt P08183); assay: Transporter assay, bi-directional transport, MDCK-MDR1 cells; format: in vitro ADME; settings: basolateral to apical / apical to basolateral, >2 = substrate; for efflux ratio at 2 h, 0.1 uM: human, MDCK-MDR1, 0.1 uM, read-out: PGP (efflux ratio); for PGP (efflux ratio): 0.1 uM, 2 hours
T1 construct: host or cells: MDCK (MDCK-MDR1)
T1 sequence (P08183 whole entry): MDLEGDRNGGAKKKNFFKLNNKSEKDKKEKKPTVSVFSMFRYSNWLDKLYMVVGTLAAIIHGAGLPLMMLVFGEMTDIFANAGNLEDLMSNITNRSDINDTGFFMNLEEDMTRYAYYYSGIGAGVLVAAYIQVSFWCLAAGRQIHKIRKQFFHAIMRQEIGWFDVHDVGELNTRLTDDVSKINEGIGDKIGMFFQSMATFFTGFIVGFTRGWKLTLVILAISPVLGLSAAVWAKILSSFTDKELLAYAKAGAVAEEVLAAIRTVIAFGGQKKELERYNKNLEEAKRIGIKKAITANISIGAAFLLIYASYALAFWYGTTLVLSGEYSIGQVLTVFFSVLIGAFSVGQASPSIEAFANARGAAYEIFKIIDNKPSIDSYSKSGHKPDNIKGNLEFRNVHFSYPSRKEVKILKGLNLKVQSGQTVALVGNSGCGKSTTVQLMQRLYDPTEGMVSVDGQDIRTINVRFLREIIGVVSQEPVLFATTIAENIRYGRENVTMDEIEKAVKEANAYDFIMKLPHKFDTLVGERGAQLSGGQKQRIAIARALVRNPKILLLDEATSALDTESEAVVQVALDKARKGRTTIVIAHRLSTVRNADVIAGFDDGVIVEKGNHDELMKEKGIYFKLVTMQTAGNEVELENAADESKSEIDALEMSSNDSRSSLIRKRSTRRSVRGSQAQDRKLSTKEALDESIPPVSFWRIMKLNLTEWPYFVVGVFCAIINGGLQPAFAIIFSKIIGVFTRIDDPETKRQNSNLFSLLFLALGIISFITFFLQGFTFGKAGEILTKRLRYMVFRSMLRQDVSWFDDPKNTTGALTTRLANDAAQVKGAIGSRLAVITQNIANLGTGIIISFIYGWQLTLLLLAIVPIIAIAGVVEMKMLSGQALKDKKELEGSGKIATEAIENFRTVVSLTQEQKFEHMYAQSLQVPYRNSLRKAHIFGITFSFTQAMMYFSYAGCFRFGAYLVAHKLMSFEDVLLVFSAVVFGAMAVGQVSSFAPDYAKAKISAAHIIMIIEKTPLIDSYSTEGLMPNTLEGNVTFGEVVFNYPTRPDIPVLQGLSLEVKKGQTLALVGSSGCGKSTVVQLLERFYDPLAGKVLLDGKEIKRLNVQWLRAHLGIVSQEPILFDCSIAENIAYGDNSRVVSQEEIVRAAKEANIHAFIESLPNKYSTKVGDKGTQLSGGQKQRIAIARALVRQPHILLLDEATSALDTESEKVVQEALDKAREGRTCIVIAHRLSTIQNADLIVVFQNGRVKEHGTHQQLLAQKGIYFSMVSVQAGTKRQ
Procedure: (§1) Compounds were assessed as substrates of MDR1 P-glycoprotein (P-gp) and mouse Breast Cancer Resistance Protein (mBcrp) at 0.1 uM, for 2 hours, in bi-directional transport assays using recombinant MDCK cell lines as described previously (Feng et al. Drug Metabolism and Disposition 2008, Vol. 36:268-275). MDCK-MDR1 and MDCK-mBcrp cells were acquired from the National Institutes of Health (Bethesda, MID) and the Netherlands Cancer Institute respectively, and used under license agreement. Data are expressed as efflux ratios, where transport across the cell monolayer in the basolateral to apical direction is divided by transport in the apical to basolateral direction. Efflux ratios >2 indicate the test compound is a substrate of the transporter tested.

[3] = biological target: T2, mouse Breast Cancer Resistance Protein (mBcrp) (Mus musculus, UniProt Q7TMS5); assay: Transporter assay, bi-directional transport, MDCK-mBcrp cells; format: in vitro ADME; settings: basolateral to apical / apical to basolateral, >2 = substrate; for efflux ratio at 2 h, 0.1 uM: mouse, read-out: BCRP (efflux ratio); for BCRP (efflux ratio): 0.1 uM, 2 hours
T2 construct: host or cells: MDCK (MDCK-mBcrp)
T2 sequence (Q7TMS5 1-657): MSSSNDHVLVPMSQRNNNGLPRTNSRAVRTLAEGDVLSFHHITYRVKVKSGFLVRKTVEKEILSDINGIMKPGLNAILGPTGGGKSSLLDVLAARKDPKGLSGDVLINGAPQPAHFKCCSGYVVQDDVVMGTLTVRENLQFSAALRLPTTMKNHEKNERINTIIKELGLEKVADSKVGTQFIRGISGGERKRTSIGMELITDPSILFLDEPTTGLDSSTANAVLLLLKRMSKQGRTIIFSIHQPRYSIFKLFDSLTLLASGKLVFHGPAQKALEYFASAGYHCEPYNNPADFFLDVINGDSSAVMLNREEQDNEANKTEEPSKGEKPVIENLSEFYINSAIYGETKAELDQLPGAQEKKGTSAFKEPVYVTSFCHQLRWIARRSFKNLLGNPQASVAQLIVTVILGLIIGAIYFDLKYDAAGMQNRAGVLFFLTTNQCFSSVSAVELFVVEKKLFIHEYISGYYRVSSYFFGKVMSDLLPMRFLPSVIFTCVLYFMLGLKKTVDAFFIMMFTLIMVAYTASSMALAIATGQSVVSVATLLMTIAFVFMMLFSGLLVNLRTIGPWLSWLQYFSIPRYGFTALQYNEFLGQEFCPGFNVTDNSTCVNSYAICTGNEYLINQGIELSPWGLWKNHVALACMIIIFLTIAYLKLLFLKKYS
Procedure: as §1

hWB = assay: hWB; format: cell-based; settings: printed as "hWB" value in the pMLKL IC50 column; no method given

With `Nc1nc2cc(-c3ccc(F)c(OCCC(F)(F)C(O)c4ccc(F)cn4)c3F)ccn2n1` (single isomer, unassigned) [Example 34, 4-(3-(2-amino-[1,2,4]triazolo[1,5-a]pyridin-7-yl)-2,6-difluorophenoxy)-2,2-difluoro-1-(5-fluoropyridin-2-yl)butan-1-ol] the IC50 ([1]; Homo sapiens) was 8 nM, the efflux ratio at 2 h, 0.1 uM [2] was 2.4 and the efflux ratio at 2 h, 0.1 uM [3] was 7.

Molecule `CC(O)(c1ccccc1)C(F)(F)CCOc1c(F)ccc(-c2ccn3nc(N)nc3c2)c1F` (single isomer, unassigned) [Example 40, 5-(3-(2-amino-[1,2,4]triazolo[1,5-a]pyridin-7-yl)-2,6-difluorophenoxy)-3,3-difluoro-2-phenylpentan-2-ol] has an IC50 [1] of 0.6 nM, an efflux ratio at 2 h, 0.1 uM [2] of 1.7 and an efflux ratio at 2 h, 0.1 uM [3] of 4.8.

Work on `CC(O)(c1ccc(F)cn1)C(F)(F)CCOc1c(Cl)ccc(-c2ccn3nc(N)nc3c2)c1F` (single isomer, unassigned) [Example 31, 5-(3-(2-amino-[1,2,4]triazolo[1,5-a]pyridin-7-yl)-6-chloro-2-fluorophenoxy)-3,3-difluoro-2-(5-fluoropyridin-2-yl)pentan-2-ol] yielded an IC50 [1] of 2 nM, an efflux ratio at 2 h, 0.1 uM [2] of 5.3 and an efflux ratio at 2 h, 0.1 uM [3] of 1.4.

`CC(O)(c1ccc(F)cc1)C(F)(F)CCOc1c(F)c(F)cc(-c2ccn3nc(N)nc3c2)c1F` (single isomer, unassigned) [Example 30, 5-(3-(2-amino-[1,2,4]triazolo[1,5-a]pyridin-7-yl)-2,5,6-trifluorophenoxy)-3,3-difluoro-2-(4-fluorophenyl)pentan-2-ol] was tested, and the IC50 (hWB) was 8 nM, the efflux ratio at 2 h, 0.1 uM [2] was 2.5 and the efflux ratio at 2 h, 0.1 uM [3] was 3.

`CC(O)(c1ccc(F)cn1)C(F)(F)CCOc1c(F)ccc(-c2ccn3nc(N)nc3c2)c1F` (single isomer, unassigned) [Example 28, 5-(3-(2-amino-[1,2,4]triazolo[1,5-a]pyridin-7-yl)-2,6-difluorophenoxy)-3,3-difluoro-2-(5-fluoropyridin-2-yl)pentan-2-ol] showed an IC50 (hWB) of 82 nM.

Work on `[2H]C([2H])(CC(F)(F)C(C)(O)c1ccc(F)cc1)Oc1cccc(-c2ccn3nc(N)nc3c2)c1F` (single isomer, unassigned) [Example 13, 5-(3-(2-amino-[1,2,4]triazolo[1,5-a]pyridin-7-yl)-2-fluorophenoxy)-3,3-difluoro-2-(4-fluorophenyl)pentan-5,5-d2-2-ol] yielded an IC50 [1] of 0.1 nM, an efflux ratio at 2 h, 0.1 uM [2] of 1.8 and an efflux ratio at 2 h, 0.1 uM [3] of 3.9.

For `CC(O)(c1ccc(F)cc1)C(F)(F)CCOc1cccc(-c2ccn3nc(N)nc3c2)c1F` (single isomer, unassigned) [Example 2, 5-(3-(2-amino-[1,2,4]triazolo[1,5-a]pyridin-7-yl)-2-fluorophenoxy)-3,3-difluoro-2-(4-fluorophenyl)pentan-2-ol], the IC50 [1] was 4 nM, the efflux ratio at 2 h, 0.1 uM [2] was 1.8 and the efflux ratio at 2 h, 0.1 uM [3] was 6.2.

`CC(O)(c1ccc(F)cn1)C(F)(F)CCOc1c(F)ccc(-c2ccn3nc(N)nc3c2)c1F` (single isomer, unassigned) [Example 27, 5-(3-(2-amino-[1,2,4]triazolo[1,5-a]pyridin-7-yl)-2,6-difluorophenoxy)-3,3-difluoro-2-(5-fluoropyridin-2-yl)pentan-2-ol] showed an IC50 (hWB) of 64 nM, an efflux ratio at 2 h, 0.1 uM [2] of 1.1 and an efflux ratio at 2 h, 0.1 uM [3] of 1.6.

`C[C@@](O)(c1ccc(F)cc1)C(F)(F)CCOc1c(F)ccc(-c2ccn3nc(N)nc3c2)c1F` (single isomer, unassigned) [Example 50, 5-(3-(2-amino-[1,2,4]triazolo[1,5-a]pyridin-7-yl)-2,6-difluorophenoxy)-3,3-difluoro-2-(4-fluorophenyl)pentan-2-ol] was tested, and the IC50 ([1]; Homo sapiens) was 0.4 nM, the efflux ratio at 2 h, 0.1 uM [2] was 1.6 and the efflux ratio at 2 h, 0.1 uM [3] was 2.4.

`CC(O)(c1ccc(F)cc1)C(F)(F)CCOc1c(Cl)ccc(-c2ccn3nc(N)nc3c2)c1F` (single isomer, unassigned) [Example 4, 5-(3-(2-amino-[1,2,4]triazolo[1,5-a]pyridin-7-yl)-6-chloro-2-fluorophenoxy)-3,3-difluoro-2-(4-fluorophenyl)pentan-2-ol] was tested, and the IC50 [1] was 0.5 nM, the “PGP (efflux ratio)” value [2] was 1.5 and the “BCRP (efflux ratio)” value [3] was 1.7.

For `CC(O)(c1ccc(F)cc1)C(F)(F)CCOc1c(F)cc(F)c(-c2ccn3nc(N)nc3c2)c1F` (single isomer, unassigned) [Example 29, 5-(3-(2-amino-[1,2,4]triazolo[1,5-a]pyridin-7-yl)-2,4,6-trifluorophenoxy)-3,3-difluoro-2-(4-fluorophenyl)pentan-2-ol], the IC50 (hWB) was 4 nM, the efflux ratio at 2 h, 0.1 uM [2] was 1.6 and the efflux ratio at 2 h, 0.1 uM [3] was 2.5.

In the case of `CC(O)(c1ccc(F)cc1)C(F)(F)CCOc1ccc(Cl)c(-c2ccn3nc(N)nc3c2)n1` (single isomer, unassigned) [Example 80, 5-((6-(2-amino-[1,2,4]triazolo[1,5-a]pyridin-7-yl)-5-chloropyridin-2-yl)oxy)-3,3-difluoro-2-(4-fluorophenyl)pentan-2-ol], the IC50 [1] is reported as 6.8 nM, the efflux ratio at 2 h, 0.1 uM [2] is reported as 5.9 and the efflux ratio at 2 h, 0.1 uM [3] is reported as 5.6.

With `C[C@](O)(c1ccc(F)cc1)C(F)(F)CCOc1c(F)ccc(-c2ccn3nc(N)nc3c2)c1F` (single isomer, unassigned) [Example 49, 5-(3-(2-amino-[1,2,4]triazolo[1,5-a]pyridin-7-yl)-2,6-difluorophenoxy)-3,3-difluoro-2-(4-fluorophenyl)pentan-2-ol] the IC50 ([1]; Homo sapiens) was 34 nM, the efflux ratio at 2 h, 0.1 uM [2] was 1.5 and the efflux ratio at 2 h, 0.1 uM [3] was 4.

`[2H]C([2H])(CC(F)(F)C(C)(O)c1ccc(F)cc1)Oc1c(F)ccc(-c2ccn3nc(N)nc3c2)c1F` (single isomer, unassigned) [Example 15, 5-(3-(2-amino-[1,2,4]triazolo[1,5-a]pyridin-7-yl)-2,6-difluorophenoxy)-3,3-difluoro-2-(4-fluorophenyl)pentan-5,5-d2-2-ol] gave an IC50 [1] of 0.3 nM, an efflux ratio at 2 h, 0.1 uM [2] of 1.4 and an efflux ratio at 2 h, 0.1 uM [3] of 2.9.

Molecule `Cc1ccc(-c2ccn3nc(N)nc3c2)c(F)c1C(=O)NCC(F)(F)C(O)c1ccc(F)cc1` (stereo not drawn) [Example 30 from WO2022/086828, reference compound] has an efflux ratio at 2 h, 0.1 uM [2] of 35 and an efflux ratio at 2 h, 0.1 uM [3] of 43.

For `CC(O)(c1ccc(F)cc1)C(F)(F)CCOc1cccc(-c2ccn3nc(N)nc3c2)c1F` (single isomer, unassigned) [Example 3, 5-(3-(2-amino-[1,2,4]triazolo[1,5-a]pyridin-7-yl)-2-fluorophenoxy)-3,3-difluoro-2-(4-fluorophenyl)pentan-2-ol], the IC50 [1] was 0.1 nM, the “PGP (efflux ratio)” value [2] was 1.2 and the “BCRP (efflux ratio)” value [3] was 3.4.

Work on `CC(O)(c1ccccc1)C(F)(F)CCOc1c(F)ccc(-c2ccn3nc(N)nc3c2F)c1F` (single isomer, unassigned) [Example 38, 5-(3-(2-amino-8-fluoro-[1,2,4]triazolo[1,5-a]pyridin-7-yl)-2,6-difluorophenoxy)-3,3-difluoro-2-phenylpentan-2-ol] yielded an IC50 ([1]; Homo sapiens) of 0.3 nM, an efflux ratio at 2 h, 0.1 uM [2] of 2.1 and an efflux ratio at 2 h, 0.1 uM [3] of 5.1.

Work on `CC(O)(c1ccc(F)cc1)C(F)(F)CCOc1c(Cl)ccc(-c2ccn3nc(N)nc3c2)c1F` (single isomer, unassigned) [Example 52, 5-(3-(2-amino-[1,2,4]triazolo[1,5-a]pyridin-7-yl)-6-chloro-2-fluorophenoxy)-3,3-difluoro-2-(4-fluorophenyl)pentan-2-ol] yielded an IC50 [1] of 0.5 nM, an efflux ratio at 2 h, 0.1 uM [2] of 1.5 and an efflux ratio at 2 h, 0.1 uM [3] of 1.7.
